# Laboratory results reported in patent US7893199B2, “Peptides having neutrophil-stimulating activity” (National University Corporation Gunma University, priority 2006, dated 2011).
# Where no end group is shown, it is not given here. The star is where a group is joined. Biotin = O=C1N[C@H]2[C@H](CS[C@H]2CCCCC(=O)*)N1
# Experiments:
# [1] = system: neutrophil-like differentiated HL-60 cells; assay: binding of biotinylated peptides to cell surfaces (streptavidin-Alexa488 fluorescence microscopy); design: species or system human; conditions: peptide 10 μM, 37° C., 30 minutes
# Protocol: (§1) Thus, it was confirmed that the synthesized functional peptide derivatives had the activities. Therefore, subsequently, in order to identify the binding sites of the functional peptides in the cells, these peptides (final concentration 10 μM) were incubated with the neutrophil-like differentiated HL-60 cells or undifferentiated HL-60 cells prepared in Example 3-(3) at 37° C. for 30 minutes. After that, the obtained cell suspension was centrifuged (1,000 rpm, 5 minutes, 4° C.) and the supernatant was removed. Further, HBHS was added and the mixture was centrifuged to wash the cells. Then, the cells were resuspended in HBHS. A streptavidin-HBHS labeled with a fluorescence, Alexa488 (Molecular probe, Invitrogen Corporation.) was added thereto, and the mixture was centrifuged, and the supernatant was removed. Further, the following operation was repeated three times to wash the cells: HBHS was added and the mixture was centrifuged.
# [2] = system: undifferentiated HL-60 cells; assay: as above; design: species or system human; conditions: peptide 10 μM, 37° C., 30 minutes
# Protocol: as §1
# [3] = molecular target: T1, heat shock 70 kDa protein 8 isoform 1 (SEQ ID NO: 52) (Homo sapiens, UniProt P11142); assay: chemical crosslinking experiment, streptavidin beads, electrophoresis (receptor identification); assay type: binding; conditions: peptide 10 μM; for bands of specifically binding proteins in SDS gel electrophoresis: differentiated HL-60 cell lysate, silver stain
# T1 construct: endogenous in cells; host or cells: neutrophil-like differentiated HL-60 cells
# T1 sequence (P11142 whole entry, canonical isoform): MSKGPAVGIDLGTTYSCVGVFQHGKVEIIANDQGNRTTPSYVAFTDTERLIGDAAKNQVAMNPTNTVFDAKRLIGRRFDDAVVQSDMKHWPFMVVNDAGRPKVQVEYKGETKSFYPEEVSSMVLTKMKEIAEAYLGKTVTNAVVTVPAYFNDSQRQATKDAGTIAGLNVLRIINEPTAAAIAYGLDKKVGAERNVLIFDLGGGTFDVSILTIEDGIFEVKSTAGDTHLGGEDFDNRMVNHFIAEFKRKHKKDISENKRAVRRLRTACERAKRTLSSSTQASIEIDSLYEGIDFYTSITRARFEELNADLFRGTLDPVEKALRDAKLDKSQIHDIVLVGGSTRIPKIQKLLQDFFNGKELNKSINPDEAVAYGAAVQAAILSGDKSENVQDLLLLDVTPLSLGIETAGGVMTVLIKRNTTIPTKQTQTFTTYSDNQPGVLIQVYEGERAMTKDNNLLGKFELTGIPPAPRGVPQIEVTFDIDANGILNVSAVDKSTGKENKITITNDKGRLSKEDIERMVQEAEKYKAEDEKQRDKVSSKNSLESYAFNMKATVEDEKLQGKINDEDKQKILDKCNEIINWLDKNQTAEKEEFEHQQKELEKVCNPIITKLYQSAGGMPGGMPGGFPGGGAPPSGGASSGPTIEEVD
# Protocol: Then, in order to identify directly the receptor molecules to which these functional peptides are bound, the following chemical crosslinking experiment was performed. That is, the HL-60 cells differentiated into the neutrophil-like cells were suspended in HBHS (not containing 0.1% BSA). The suspension was centrifuged (1,000 rpm, 5 minutes, 4° C.) and the supernatant was removed. The cells were suspended again in the HBHS not containing BSA so as to have the cell density of 5.6×10^6 cells/ml. The obtained cell suspension was preincubated at 37° C. for 10 minutes at first, and 1/10 volume of mitocryptide-3 and -5, [Cys^0]mitocryptide-3, [Cys^0]mitocryptide-5, [Cys^24]mitocryptide-3, and peptides obtained by introducing biotin into the N terminals thereof (N-biotinyl-mitocryptide-3, N-biotinyl-mitocryptide-5, N-biotinyl-[Cys^0]mitocryptide-3, N-biotinyl-[Cys^0]mitocryptide-5, and N-biotinyl-[Cys^24]mitocryptide-3) were added to have the final concentration of 10 μM, followed by incubation at 37° C. for 30 minutes. After that, the cell suspension was centrifuged (5,000 rpm, 4° C., 1 minute) and the supernatant was removed. The resultant cells were resuspended in HBHS not containing BSA and centrifuged again to wash the cells. 1 ml of a buffer for dissolving cells (100 mM NaCl, 20 mM Tris-HCl, 1 mM EDTA, 77.5 mTIU/ml aprotinin, 1 μM leupeptin, 1 μg/ml pepstatin A, 1 μg/ml phosphoramidone, 1% CHAPS, pH 7.5) with respect to 1 ml of the original cell suspension was added to the cell precipitate, and the mixture was incubated at 4° C. for 30 minutes to dissolve the cells, thereby a cell lysate was prepared. The cell lysate was centrifuged (15,000 rpm, 4° C., 15 minutes) and the supernatant was centrifuged again in the same condition. The obtained supernatant was incubated with streptavidin beads at 4° C. for 30 minutes, then, the beads were washed by centrifugation with the buffer for dissolving cells three times. Further, the beads were treated by heat at 100° C. for 10 minutes in the buffer for dissolving cells, and the mixture was centrifuged. The obtained supernatant was subjected to an SDS gel electrophoresis to separate the contained protein. Then, the gel was stained by silver stain method, thereby the proteins were analyzed. […] As a result, two specific spots were detected (FIG. 15-A). Therefore, the protein was extracted and degraded with trypsin, and then, the degraded proteins were analyzed by mass spectrometry.
# [4] = system: HL-60 cells differentiated into the neutrophil-like cells; assay: β-hexosaminidase-secreting activity of neutrophil-like differentiated HL-60 cells; assay type: cell-based, human; conditions: differentiated HL-60 cells; read-out: EC50, β-hexosaminidase-secreting activity
# Text: (1) Culture of Cell and Differentiation Into Neutrophil-like Cell
# In this time, the cells were subcultured at a cell density of 1.0×10^5 cells/ml to 1.5×10^6 cells/ml, the number of cells was counted using a microscope, and the state of the cells was also confirmed.
# The HL-60 cells were differentiated into neutrophil-like cells by setting the cell density in the flask to about 1.0×10^6 cells/ml, adding dibutylyl-cAMP (db-cAMP) as a differentiation-inducing agent so as to have a final concentration of 500 μM, and incubating the cells in the presence of CO2 at 37° C. for 3 days.
# (2) Stimulation of Cell and Measurement of β-Hexosaminidase-secreting Activity
# The cells were collected by centrifuging the suspension of the differentiated HL-60 cells (1,000 rpm, 5 minutes, 4° C.). After that, the following operation was repeated three times to wash the cells: Hepes buffered Hank's solution (HBHS) containing ice-cooled 0.1% BSA (1.2 mM CaCl2.2H2O, 5.4 mM KCl, 0.44 mM KH2PO4, 0.49 mM MgCl2.6H2O, 0.41 mM MgSO4.7H2O, 136.9 mM NaCl, 0.34 mM Na2HPO4, 10 mM Hepes, 4.2 mM NaHCO3, 5.5 mM D-glucose, pH 7.4) was added to the cells; the mixture was suspended by inversion; and the mixture was centrifuged again (1,000 rpm, 5 minutes, 4° C.). Subsequently, HBHS was added so that the mixture has a cell density of 5.6×10^6 cells/ml and suspended. Then, DNase I and cytochalasin B were each added so as to have a final concentration of 5 μg/ml, and the cell suspension was dispensed in an amount of 90 μl (5×10^5 cells) on ice. […] After the cell stimulation for 10 minutes, 100 μl of an ice-cooled stop solution (25 mM Tris, 123 mM NaCl, 2.7 mM KCl, pH 7.4) were added, and immediately, the mixture was centrifuged (5,000 rpm, 1 minute, 4° C.). 200 μl of the obtained supernatant were transferred to a new tube.
# The amount of β-hexosaminidase released in the supernatant of the reaction solution was measured by an enzyme reaction using p-nitrophenyl-N-acetyl-μ-D-glucosaminide as a substrate (Non-patent Document 12). That is, the supernatant of the reaction solution was dispensed in an amount of 90 μl to a 96-well plate. 60 μl of a substrate solution (10 mM p-nitrophenyl-N-acetyl-μ-D-glucosaminide, 40 mM citrate, 70 mM Na2HPO4, pH 4.5) were added to each well, followed by incubation at 37° C. for 1 hour. After the reaction, 100 μl of a stop solution (0.4 M glycine, pH 10.7) were added to each well and a color of the released p-nitrophenol was developed. The color development was measured with a plate reader at adsorption at 405 nm (reference: 492 nm). The all amount of β-hexosaminidase contained in the cells was quantified by treating the cells with Triton X-100 having a final concentration of 0.05%. In addition, the amount of β-hexosaminidase secreted by stimulation of 10 μM fMLP was also measured, and the ratio of the secretion amount by stimulation with each peptide to the above sectretion amount by stimulation with fMLP.
# [5] = system: differentiated HL-60 cells; assay: migration activity (Chemotaxis Index) of differentiated HL-60 cells; assay type: cell-based, human
# Protocol: (3) Measurement of Migration Activity
# The cells were collected by centrifuging the suspension of the differentiated HL-60 cells (1,000 rpm, 5 minutes, 4° C.). After that, the following operation was repeated three times to wash the cells: 10% FBS-RPMI1640 was added to the cells; the mixture was suspended by inversion; and the mixture was centrifuged again (1,000 rpm, 5 minutes, 4° C.). Then, a medium (10% FBS-RPMI1640) was added so that a cell density was 4×10^6 cells/ml, thereby a cell suspension was prepared. Subsequently, 1 ml of each peptide solution (dissolved in 10% FBS-RPMI 1640) was transferred to each well of a 24-well plate, and the plate was incubated at 37° C. for 20 minutes. After that, 500 μl of the cell suspension (2×10^6 cells) were put in Chemotaxicell (KURABO […] LTD., 3 μm) and the Chemotaxicell was set in a plate, followed by incubation in the presence of 5% CO2 at 37° C. for 1 hour. Then, the Chemotaxicell was removed and the solution in each well of the plate was pipetted. The cells migrated to the plate side was suspended well and the number of the cells were measured. Note that the migration activity by the peptide was represented by a ratio of the number of the cells to the number of the cells passing the Chemotaxicell at the time of non-stimulation (Chemotaxis Index, CI).
# [6] = system: G protein in the differentiated HL-60 cell membrane fraction; assay: G protein activation ability (GTP hydrolysis) in cell membrane fraction; assay type: biochemical, human
# Protocol: (4) Measurement of G Protein Activation Ability
# The cells were collected by centrifuging the suspension of the differentiated HL-60 cells (1,000 rpm, 5 minutes, 4° C.). After that, the following operation was repeated three times to wash the cells: ice-cooled PBS was added to the cells; the mixture was suspended by inversion; and the mixture was centrifuged (1,000 rpm, 5 minutes, 4° C.). Then, the precipitated cells were suspended in a buffer for preparing a cell membrane fraction (20 mM Tris-HCl, 250 mM sucrose, 1.5 mM MgCl2, 3 mM benzamidine hydrochloride monohydrate, 1 μM leupeptin, 1 μM PMSF, 2 μg/ml trypsin inhibitor, pH 7.5) and a cell homogenate was prepared using nitrogen pressing-depressing type cell homogenizing apparatus (nitrogen pressure: 350 psi). After that, the resultant was ultracentrifuged (20,000 g, 4° C., 30 minutes) to remove the supernatant, and the precipitate was suspended in a membrane fraction buffer (20 mM Tris-HCl, 1 mM EDTA, 1 mM DTT, 77.5 mTIU/ml aprotinin, pH 7.5) and used as a cell membrane fraction. After dispensed, the cell membrane fraction was stored at −80° C. The activity of the G protein was quantified using the activity to hydrolyze GTP to GDP as an index. […] The mixture was centrifuged (15,000 rpm, 1 minute, 4° C.), and the radioactivity of the supernatant was measured.
# [7] = molecular target: T2, bovine Gi1-G protein (Bos taurus, UniProt P63097); assay: G protein activation ability (GTP hydrolysis) with purified Gi1; assay type: biochemical
# T2 construct: made in house; host or cells: E. coli
# T2 sequence (P63097 whole entry): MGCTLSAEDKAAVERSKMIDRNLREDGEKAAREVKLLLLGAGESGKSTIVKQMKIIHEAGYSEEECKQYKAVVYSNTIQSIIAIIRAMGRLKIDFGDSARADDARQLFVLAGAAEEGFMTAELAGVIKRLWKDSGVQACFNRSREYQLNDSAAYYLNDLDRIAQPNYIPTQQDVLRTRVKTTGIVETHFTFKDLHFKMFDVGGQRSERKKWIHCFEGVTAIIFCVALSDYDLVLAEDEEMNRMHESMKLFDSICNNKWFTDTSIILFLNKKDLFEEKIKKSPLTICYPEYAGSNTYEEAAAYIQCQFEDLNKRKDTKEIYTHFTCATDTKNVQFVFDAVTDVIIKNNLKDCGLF
substance,measurement,setting,value
N-biotinyl-Cys-Gln-Leu-Trp-Ala-Val-Gly-Ser-Phe-Met-NH2 (Biotin-CQLWAVGSFM-NH2; SMILES CSCC[C@H](NC(=O)[C@H](Cc1ccccc1)NC(=O)[C@H](CO)NC(=O)CNC(=O)[C@@H](NC(=O)[C@H](C)NC(=O)[C@H](Cc1c[nH]c2ccccc12)NC(=O)[C@H](CC(C)C)NC(=O)[C@H](CCC(N)=O)NC(=O)[C@H](CS)NC(=O)CCCC[C@@H]1SC[C@@H]2NC(=O)N[C@@H]21)C(C)C)C(N)=O) [reference compound],binding to cell surfaces,[1],no binding was confirmed at all
N-biotinyl-[Cys^0]mitocryptide-3: [Cys^0]mitocryptide-3 with biotin introduced into the N terminal (Biotin-CMLWNLLALHQIGQRTISTASHRH),binding to cell surfaces,[1],bound to the surfaces of the neutrophil-like differentiated HL-60 cells specifically
same,binding to cell surfaces,[2],less bound to the surfaces of the undifferentiated HL-60 cells
same,bands of specifically binding proteins in SDS gel electrophoresis,[3],five bands indicating specific binding
MFPLVKSALNRLQVRSIQQTMARQ [No. 015],EC50,[4],380 nM
same,concentration of migration activity compared with that of β-hexosaminidase-secreting activity,[5],confirmed at the almost same concentration
same,desensitization of migration activity with increasing concentration of the peptide,[5],subjected to desensitization completely
same,activation of G protein,[6],activated
same,activation of purified Gi1 protein,[7],activated
N-biotinyl-[Cys^24]mitocryptide-3: [Cys^24]mitocryptide-3 with biotin introduced into the N terminal (Biotin-MLWNLLALHQIGQRTISTASHRHC),bands of specifically binding proteins in SDS gel electrophoresis,[3],five bands indicating specific binding
N-biotinyl-[Cys^0]mitocryptide-5: [Cys^0]mitocryptide-5 with biotin introduced into the N terminal (Biotin-CMFPLVKSALNRLQVRSIQQTMARQ),binding to cell surfaces,[1],bound to the surfaces of the cells specifically
same,binding of heat shock 70 kDa protein 8 isoform 1 to the peptide,[3]; differentiated HL-60 cells,bound
